Experiments:
citrated blood plasma [1] = assay: In vitro activated partial thromboplastin time (APTT), citrated blood plasma; format: biochemical, human; design: unit not given here
Description: (§1) The antithrombin activity of the compounds of general formula (I) was determined by the usual method [Bagdy et al.: Thromb Haemostas 67, 325-330 (1992)] by measuring whole blood clotting time (WBCT), thrombin time (TT) and activated partial thromboplastin time (APTT). The in vitro activity of some compounds of the invention assayed on native human blood (non-anticoagulated clotting) (WBCT) and on citrated blood plasma (TT and APTT) is presented in Table 1.
(§2) ^2 WBCT = whole blood clotting time, TT = thrombin time, APTT =
(§3) activated partial thromboplastin time parameter. The figures represent
(§4) concentrations of the compounds required to double the clotting time of
(§5) native whole human blood or of citrated blood plasma.

native whole human blood = assay: In vitro whole blood clotting time (WBCT), native human blood; format: biochemical; design: unit not given here
Description: as §1, §2, §3, §4, §5

citrated blood plasma [2] = assay: In vitro thrombin time (TT), citrated blood plasma; format: biochemical, human; design: unit not given here
Description: as §1, §2, §3, §4, §5

[3] = tested on: fibrinolysis induced by tissue plasminogen activator; assay: Fibrinolysis induced by tissue plasminogen activator, thromboelastogram; format: biochemical
From the text: The compounds of the general formula (I) inhibit clot formation without interfering with the natural lysis of blood clots in the body, e.g. fibrinolysis. […] Thromboelastography. In: Bang N. U., F. K. Beller, E. Deutsch, E. F. Mamman eds. Thrombosis and Bleeding Disorders. Theory and Methods. Academic Press, London, 1971: 70-76].

SMILES | APTT: concentration required to double the clotting time (citrated blood plasma [1]) | WBCT: concentration required to double the clotting time (native whole human blood) | TT: concentration required to double the clotting time (citrated blood plasma [2]) | inhibitory effect on fibrinolysis induced by tissue plasminogen activator [3]
N=C(N)NCCC[C@@H](C=O)NC(=O)[C@@H]1CCCN1C(=O)[C@@H]1OCCc2ccccc21.N=C(N)NCCC[C@@H](C=O)NC(=O)[C@@H]1CCCN1C(=O)[C@@H]1OCCc2ccccc21.O=S(=O)(O)O [Example 1, D-Isochroman-1-carbonyl-L-prolyl-L-arginine aldehyde hemisulfate] | 0.60 | 1.55 | 0.132 | 
N=C(N)NCCC[C@@H](C=O)NC(=O)[C@H]1CCCN1C(=O)C(O)c1ccccc1.N=C(N)NCCC[C@@H](C=O)NC(=O)[C@H]1CCCN1C(=O)C(O)c1ccccc1.O=S(=O)(O)O (stereo partly drawn) [Example 6, D-2-Phenyl-2-hydroxyacetyl-L-prolyl-L-arginine aldehyde hemisulfate] | 0.15 | 0.45 | 0.040 | only negligible inhibitory effect
N=C(N)NCCC[C@@H](C=O)NC(=O)[C@H]1CCCN1C(=O)C(O)C1CCCCC1.N=C(N)NCCC[C@@H](C=O)NC(=O)[C@H]1CCCN1C(=O)C(O)C1CCCCC1.O=S(=O)(O)O (stereo partly drawn) [Example 8, D-2-Cyclohexyl-2-hydroxyacetyl-L-prolyl-L-arginine aldehyde hemisulfate] | 0.35 | 0.72 | 0.100 | only negligible inhibitory effect
N=C(N)NCCC[C@@H](C=O)NC(=O)[C@@H]1CCCN1C(=O)[C@H](O)C(c1ccccc1)c1ccccc1.N=C(N)NCCC[C@@H](C=O)NC(=O)[C@@H]1CCCN1C(=O)[C@H](O)C(c1ccccc1)c1ccccc1.O=S(=O)(O)O [Example 12, 3,3-Diphenyl-D-lactyl-L-prolyl-L-arginine aldehyde hemisulfate] | 0.12 | 0.52 | 0.077 | 
N=C(N)NCCC[C@@H](C=O)NC(=O)[C@H]1CCCN1C(=O)C(O)c1ccc2ccccc2c1.N=C(N)NCCC[C@@H](C=O)NC(=O)[C@H]1CCCN1C(=O)C(O)c1ccc2ccccc2c1.O=S(=O)(O)O (stereo partly drawn) [Example 13, D-2-(2-Naphthyl)-2-hydroxyacetyl-L-prolyl-L-arginine aldehyde hemisulfate] | 1.00 | 1.13 | 0.100 | 
N=C(N)NCCC[C@@H](C=O)NC(=O)[C@H]1CCCN1C(=O)C(O)c1cccc2ccccc12.N=C(N)NCCC[C@@H](C=O)NC(=O)[C@H]1CCCN1C(=O)C(O)c1cccc2ccccc12.O=S(=O)(O)O (stereo partly drawn) [Example 14, D-2-(1-Naphthyl)-2-hydroxyacetyl-L-prolyl-L-arginine aldehyde hemisulfate] | 0.52 | 1.04 | 0.150 | 
